The target in assay [1] is T1, ryanodine receptor channel (Ca- channel) (Sus scrofa, UniProt A0A5G2R1W3).
T1 construct: a cell membrane vesicle sampled from a swine cardiac muscle; from tissue; host or cells: swine cardiac muscle membrane vesicles
Nature of the assay: Single channel current measurement and fluorescence observation of ryanodine receptor channel in artificial lipid bilayer membrane. It is filed as biochemical, swine. The conditions noted are these: 1 to 10 nM Cy5-labeled ryanodine added from the upside of the membrane; 500 mM Na-methanesulfonic acid, 40 mM Hepes (pH 7.4), 0.01-0.1 μM Ca2+. An excerpt:
(§1) In the present Example, a current measuring device according to the present invention (FIG. 5) was used. […] In the bottom 9, a small hole 4 whose diameter was 0.15 mm was provided. A square glass plate whose thickness was 0.17 mm and each side was 18 mm was used as the bottom plate 6. Further, an agarose gel layer whose thickness was 100 nm was formed on the bottom plate 6 as the support layer 5 so as to be positioned in a face contacting the upper solution chamber 3. […] In measuring a current, a patch-clamp amplifier (CEZ-2400 produced by Nihon Kohden Corporation) was used, and the measured current was recorded on a DAT tape by using a DAT recorder. […]
Thereafter, solution obtained by dissolving phosphatidylcholine in decane so that its concentration was 20 mg/ml was applied to the small hole 4 provided in the bottom 9 of the upper solution chamber 3. […] At this time, the ryanodine receptor channel on the vesicle membrane was fluorescence-labeled with fluorescent dye Cy5 (product of Amensham Pharmacia) in advance, and then the cell membrane vesicle was fused with the artificial lipid bilayer membrane 2. The fluorescence labeling of the ryanodine receptor channel was carried out as follows: a corresponding specific monoclonal antibody was labeled with Cy5, and the thus labeled antibody was coupled with the ryanodine receptor channel. […]

Assay [2] concerns the target T2, plain muscle Ca2+ dependency K+ channel (Bos taurus, UniProt Q28204).
T2 construct: inserting a K^+ channel on the vesicle membrane into the artificial lipid bilayer membrane 2; from tissue; host or cells: bovine tracheal smooth (plain) muscle membrane vesicles
Description: Single channel current measurement of plain muscle Ca2+ dependency K+ channel in artificial lipid bilayer membrane. The assay is classed as biochemical, bovine. The conditions noted are these: 100 mM KCl, 10 mM Hepes (pH 7.4).
Text: as §1
Thereafter, lipid solution obtained by dissolving phosphatidylcholine (product of Sigma) in decane so that its concentration was 20 mg/mL was applied to the small hole 4 provided in the bottom 9 of the upper solution chamber 3. […] By using the thus produced current measuring device, a current was measured with time.
Subsequently, only the CaCl2 concentration of the aqueous solution with which the upper solution chamber 3 and the lower solution chamber 8 were filled was changed into 1 mM. Under this condition, a current measuring device was produced in the same manner, and a current was measured.

T2 sequence (Q28204 whole entry): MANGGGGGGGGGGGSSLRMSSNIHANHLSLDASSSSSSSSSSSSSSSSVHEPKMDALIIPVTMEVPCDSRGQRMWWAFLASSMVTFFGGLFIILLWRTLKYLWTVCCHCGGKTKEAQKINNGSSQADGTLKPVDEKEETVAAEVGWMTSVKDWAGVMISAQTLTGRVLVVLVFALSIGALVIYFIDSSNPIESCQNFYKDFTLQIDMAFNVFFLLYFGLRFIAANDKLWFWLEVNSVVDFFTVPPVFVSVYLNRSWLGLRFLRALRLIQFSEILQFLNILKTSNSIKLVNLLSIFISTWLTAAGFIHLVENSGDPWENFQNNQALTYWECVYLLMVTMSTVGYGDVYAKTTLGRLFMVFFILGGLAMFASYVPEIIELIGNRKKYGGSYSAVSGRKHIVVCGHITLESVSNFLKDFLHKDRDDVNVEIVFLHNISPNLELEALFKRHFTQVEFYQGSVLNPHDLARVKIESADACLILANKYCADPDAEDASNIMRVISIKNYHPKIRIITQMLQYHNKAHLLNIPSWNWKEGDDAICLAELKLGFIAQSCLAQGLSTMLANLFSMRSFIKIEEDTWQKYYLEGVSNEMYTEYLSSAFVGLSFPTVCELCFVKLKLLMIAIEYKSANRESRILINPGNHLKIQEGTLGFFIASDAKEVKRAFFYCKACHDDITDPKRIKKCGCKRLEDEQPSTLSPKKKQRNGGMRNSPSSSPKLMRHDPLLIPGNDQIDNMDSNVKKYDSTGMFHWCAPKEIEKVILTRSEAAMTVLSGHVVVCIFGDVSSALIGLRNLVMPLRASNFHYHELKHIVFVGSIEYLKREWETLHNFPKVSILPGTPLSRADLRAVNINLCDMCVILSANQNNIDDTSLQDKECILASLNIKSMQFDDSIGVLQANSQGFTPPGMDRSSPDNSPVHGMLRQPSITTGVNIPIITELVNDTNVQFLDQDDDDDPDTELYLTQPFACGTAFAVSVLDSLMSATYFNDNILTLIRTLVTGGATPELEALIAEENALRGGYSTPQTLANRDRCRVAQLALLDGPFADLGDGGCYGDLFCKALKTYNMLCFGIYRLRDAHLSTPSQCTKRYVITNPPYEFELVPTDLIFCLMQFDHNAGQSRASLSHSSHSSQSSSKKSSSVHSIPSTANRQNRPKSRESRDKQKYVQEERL
T2 sequence (Q28067 whole entry partner): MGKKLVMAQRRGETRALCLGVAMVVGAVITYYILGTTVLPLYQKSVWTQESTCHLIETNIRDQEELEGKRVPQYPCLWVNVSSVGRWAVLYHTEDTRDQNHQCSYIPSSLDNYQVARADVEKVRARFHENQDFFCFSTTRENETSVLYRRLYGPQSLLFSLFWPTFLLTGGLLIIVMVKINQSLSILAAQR

Consider ryanodine, for which the “channel activity (current trace after addition)” value in assay [1] is “activation of the ryanodine receptor channel occurs”.

`[Ca+2].[Cl-].[Cl-]` [CaCl2]: the “state of the ion channel (current trace)” value in assay [2] (CaCl2 1 mM) was “more likely to open”; in assay [2] (CaCl2 10^-9 M) it was “closed”.

The values above are taken from patent publication US7408359B2, “Current measuring device having artificial lipid bilayer membrane” (Japan Science and Technology Agency, priority 2003, dated 2008).
